Results from ChEMBL document CHEMBL3098093, “Synthesis, modification and docking studies of 5-sulfonyl isatin derivatives as SARS-CoV 3C-like protease inhibitors” (Bioorg Med Chem, 2014).

Assays:
[1] = target: Replicase polyprotein 1ab (Severe acute respiratory syndrome-related coronavirus, UniProt P0C6X7); experiment: Inhibition of GST-tagged SARS coronavirus 3C-like protease by FRET assay
[2] = target: Replicase polyprotein 1ab (Severe acute respiratory syndrome-related coronavirus) (UniProt P0C6X7); experiment: Inhibition of GST-tagged SARS coronavirus 3C-like protease at 1 mM by FRET assay

| SMILES | IC50 [1] [µM] | inhibition [2] [%] |
| --- | --- | --- |
| CC1CCN(S(=O)(=O)c2ccc3c(c2)C(=O)C(=O)N3Cc2ccc3ccccc3c2)CC1 | 17.8 | – |
| CC1CCN(S(=O)(=O)c2ccc3c(c2)C(=O)C(=O)N3Cc2ccccc2)CC1 | 1.69 | – |
| O=C1C(=O)N(Cc2ccccc2)c2ccc(S(=O)(=O)N3CCCCC3)cc21 | 14 | – |
| O=C1Nc2cc3c(cc2C1=O)CCC3 | – | 79.4 |
| O=C1Nc2ccc(C(=O)O)cc2C1=O | – | 44.8 |
| CN1CCN(S(=O)(=O)c2ccc3c(c2)C(=O)C(=O)N3Cc2ccc3ccccc3c2)CC1 | 82.9 | – |
| O=C1Nc2cccc(Br)c2C1=O | – | 68.4 |
| O=C1Nc2ccc(I)cc2C1=O | – | 86.7 |
| O=C1Nc2ccc(S(=O)(=O)N3CCN(C(=O)c4ccco4)CC3)cc2C1=O | 10.1 | – |
| O=C1Nc2ccc(S(=O)(=O)N3CCN(Cc4cccc(Cl)c4)CC3)cc2C1=O | 31.7 | – |
| O=C1C(=O)N(Cc2ccc3ccccc3c2)c2ccc(S(=O)(=O)N3CCOCC3)cc21 | 39.9 | – |
| CC1CC(C)CN(S(=O)(=O)c2ccc3c(c2)C(=O)C(=O)N3)C1 (stereo not drawn) | 4.3 | – |
| CN1CCN(S(=O)(=O)c2ccc3c(c2)C(=O)C(=O)N3)CC1 | 76.7 | 98.6 |
| CN1C(=O)C(=O)c2cc(S(=O)(=O)N3CCOCC3)ccc21 | 9.91 | – |
| O=C1Nc2ccc(S(=O)(=O)N3CCN(c4cccc(C(F)(F)F)c4)CC3)cc2C1=O | > 100 | – |
| O=C1Nc2ccc(S(=O)(=O)N3CCN(c4ccccn4)CC3)cc2C1=O | 51.3 | – |
| CC1CCN(S(=O)(=O)c2ccc3c(c2)C(=O)C(=O)N3C)CC1 | 1.04 | – |
| O=C1C(=O)N(Cc2ccccc2)c2ccc(S(=O)(=O)N3CCOCC3)cc21 | 13.9 | – |
| CN1C(=O)C(=O)c2cc(S(=O)(=O)N3CCN(CCc4ccccc4)CC3)ccc21 | 13.9 | – |

| SMILES | IC50 [1] [µM] | inhibition [2] [%] |
| --- | --- | --- |
| O=C1Nc2ccc(S(=O)(=O)N3CCN(c4ccc(F)cc4)CC3)cc2C1=O | > 100 | – |
| O=C1Nc2ccc(Cl)cc2C1=O | – | 84.2 |
| O=C1Nc2ccc(S(=O)(=O)N3CCOCC3)cc2C1=O | 12.7 | – |
| CC1CCN(S(=O)(=O)c2ccc3c(c2)C(=O)C(=O)N3)CC1 | 1.18 | – |
| COc1ccc2c(c1)C(=O)C(=O)N2 | – | 95.3 |
| CC1CC(C)CN(S(=O)(=O)c2ccc3c(c2)C(=O)C(=O)N3C)C1 (stereo not drawn) | 2.82 | – |
| CC1CC(C)CN(S(=O)(=O)c2ccc3c(c2)C(=O)C(=O)N3Cc2ccccc2)C1 (stereo not drawn) | 4.7 | – |
| O=C1Nc2ccc(F)cc2C1=O | – | 82.5 |
| CN1C(=O)C(=O)c2cc(S(=O)(=O)N3CCN(c4ccccn4)CC3)ccc21 | 5.52 | – |
| O=C1Nc2ccc(S(=O)(=O)N3CCN(CCc4ccccc4)CC3)cc2C1=O | 34.9 | – |
| CC(=O)c1ccc2c(c1)C(=O)C(=O)N2 | – | 95.4 |
| O=C1Nc2ccc(S(=O)(=O)N3CCCCC3)cc2C1=O | 4.45 | – |
| O=C1Nc2ccc([N+](=O)[O-])cc2C1=O | – | 94 |
| O=C1Nc2ccc(Br)cc2C1=O | – | 90.5 |
| CN1CCN(S(=O)(=O)c2ccc3c(c2)C(=O)C(=O)N3Cc2ccccc2)CC1 | 67.2 | – |
| CC1CCCCN1S(=O)(=O)c1ccc2c(c1)C(=O)C(=O)N2 (stereo not drawn) | 2.25 | – |
| COc1cc(CN2CCN(S(=O)(=O)c3ccc4c(c3)C(=O)C(=O)N4)CC2)cc(OC)c1OC | 32.1 | – |
| CN1CCN(S(=O)(=O)c2ccc3c(c2)C(=O)C(=O)N3C)CC1 | 11.8 | – |
